These results are taken from patent publication US20070049627A1, “Treating vulvodynia using prodrugs of GABA analogs” (priority 2005, published 2007).

The nature of data set [1]: Randomized, crossover, fed/fasted single-dose pharmacokinetic study of oral sustained release tablets of compound (3). The data set is classed as in vivo, human. To be noted: for AUC of compound (3) in blood as percent of corresponding AUC of gabapentin in blood / maximum intact compound (3) concentration as percent of corresponding peak gabapentin concentration: sustained release tablets oral. As for the experimental part:
A randomized, crossover, fed/fasted single-dose study of the safety, tolerability, and pharmacokinetics of oral administration of 1-{[(α-isobutanoyloxyethoxy)carbonyl]aminomethyl}-1-cyclohexane acetic acid (3) in healthy adult subjects was conducted. The oral sustained release dosage form of Example 6 was used in this study. The study was designed to evaluate the performance of this formulation in humans in comparison with the commercial gabapentin capsule formulation (Neurontin®, Pfizer). Twelve healthy adult volunteers (7 males and 5 females) participated in the study. Mean body weight was 75.6 kg. All subjects received two different treatments in a random order with a one-week washout between treatments. The two treatments were: (A) a single oral dose of Example 1 tablets (2×600 mg) after an overnight fast; and (B) a single oral dose of Example 1 tablets (2×600 mg) after a high fat breakfast.
Blood and plasma samples were collected from all subjects prior to dosing, and at 0.5, 1, 1.5, 2, 3, 4, 6, 8, 12, 18, 24, and 36 hours after dosing. Urine samples were collected from all subjects prior to dosing, and complete urine output was obtained at the 0-4 h, 4-8 h, 8-12 h, 12-18 h, 18-24 h, and 24-36 h intervals after dosing. Blood samples were quenched immediately with methanol and stored frozen at […]. Sample aliquots were prepared for analysis of gabapentin and compound (3) using sensitive and specific LC/MS/MS methods.

The conditions of data set [2]: in vivo, po.
The conditions of data set [3]: typical value used for comparison; cited from earlier work.
Data set [4] concerns patients suffering from chronic vulvar pain. To be noted: increasing amounts of gabapentin over 12 weeks, cited from earlier work.
A short description of data set [5]: Tmax of immediate release formulations following oral administration. To be noted: in vivo.
[6] abbreviates: sustained release tablets 2×600 mg oral, fasted subjects.
The mark [7] stands for this setting: sustained release tablets 2×600 mg oral, fed subjects.

Read-outs that look alike come from different tables or passages of the source.

Usually Tmax stands for the time at which the peak concentration occurs.

`CC(OC(=O)NCC1(CC(=O)O)CCCCC1)OC(=O)C(C)C` (stereo not drawn) [compound (3), 1-{[(α-Isobutanoyloxyethoxy)carbonyl]aminomethyl}-1-Cyclohexane Acetic Acid]: the “Cmax of gabapentin in blood” value in data set [1] (healthy adults, single oral dose sustained release tablets 2×600 mg, after a high fat breakfast) worked out at 6240 ± 1550 ng/mL. Besides, the “mean±SD Cmax for gabapentin in blood” value in data set [1] (healthy adults, single oral dose sustained release tablets 2×600 mg, fasted) was found to be 4210 ± 1150 ng/mL. For the same molecule, in data set [1] (healthy adults, sustained release tablets 2×600 mg oral, after a high fat breakfast), the “AUC of gabapentin in blood” value is 83000 ± 21800 ng·h/mL. The “mean±SD AUC for gabapentin in blood” value in data set [1] (healthy adults, sustained release tablets 2×600 mg oral, fasted) was found to be 54500 ± 12200 ng·h/mL. For the same molecule, in data set [1] (setting [6]), the “apparent terminal elimination half-life for gabapentin in blood” value was determined as 6.47 ± 0.77 h, the “gabapentin Tmax (time to peak blood levels)” value was 5.08 ± 1.62 h and the “percent of the gabapentin dose recovered in urine” value is given as 46.5±15.8%. Further, in data set [1] (setting [7]), the “apparent terminal elimination half-life for gabapentin in blood” value amounted to 5.38 ± 0.80 h and the “percent of the gabapentin dose recovered in urine” value is 73.7±7.2%. Moreover, in data set [1] (sustained release tablets 2×600 mg oral, fed vs fasted), the “increase of exposure to gabapentin in the presence of food compared to fasted subjects” value amounted to 52%. In addition, the “gabapentin Tmax (time to peak blood levels)” value in data set [1] (sustained release tablets 2×600 mg oral, in the presence of food) turned out to be 8.40 ± 2.07 h. In data set [1] (fasted subjects), the “AUC of compound (3) in blood as percent of corresponding AUC of gabapentin in blood” value worked out at 0.3% and the “maximum intact compound (3) concentration as percent of corresponding peak gabapentin concentration” value is on record as “approximately 1.0%”. Further, in data set [1] (fed subjects), the “AUC of compound (3) in blood as percent of corresponding AUC of gabapentin in blood” value was less than 0.1% and the “maximum intact compound (3) concentration as percent of corresponding peak gabapentin concentration” value is on record as “approximately 0.3%”. The Tmax in data set [2] lay in the range of 2 to 2.6 h.

In the case of `NCC1(CC(=O)O)CCCCC1` [gabapentin], in data set [3], the “typical Tmax of immediate release gabapentin” value was 2 to 4 h. In data set [4] (amitriptyline non-responders), the “patients with partial or complete relief of vulvar pain symptoms” value was “Eighty-two”. Besides, in data set [4], the “patients reporting side effects such as headaches, nausea, vomiting, fatigue, and dizziness” value is on record as “over half the patients”. Besides, in data set [5], the time of peak concentration (Tmax) was in the range of 2.8 to 3.3 h.
